Earlier results as cited in PubChem BioAssay AID1259409 (Chemical Carcinogenesis Research Information System (CCRIS), 2018).

Test system: rodent chemically induced tumor inhibition, incidence and multiplicity
Assay: CCRIS tumor inhibitor studies
Details: Carcinogen: N-METHYL-N-NITROSOUREA, 684-93-5, Route [Inhibitor]: ORAL, Promoter: NONE USED

CC1=C(/C=C/C(C)=C/C=C/C(C)=C/C(=O)NCCO)C(C)(C)CCC1
tumour outcome (control, treated, inhibition, significance) (Dose [Inhibitor]: 2 MMOL/KG DIET DAILY STARTING 12 D AFTER CARCINOGEN TREATMENT THROUGH ABOUT 8 MO AFTER CARCINOGEN DOSE (STUDY DURATION:, Species: RAT, Strain/Sex: F344/MALE, Target Tissue: Type of Lesion: COLON: ADENOMA, Dose [Carcinogen]: 2.5 MG 1/WK FOR 2 WK): 16/39 (41%), 12/30 (40%), 5%, not significant
tumour outcome (control, treated, inhibition, significance) (Dose [Inhibitor]: 343 MG/KG DIET DAILY STARTING 1 WK AFTER LAST CARCINOGEN TREATMENT AND CONTINUING FOR 6 MO (STUDY DURATION: 9 MO), Species: HAMSTER, Strain/Sex: SYRIAN/MALE, Target Tissue: Type of Lesion: TRACHEA: BENIGN EPITHELIAL NEOPLASM, Dose [Carcinogen]: 0.5% IN 1 ML PHOSPHATE-BUFFERED SALINE 1/WK FOR 12 WK): 6/63 (10%), 6/62 (10%), 0%, not significant
tumour outcome (control, treated, inhibition, significance) (Dose [Inhibitor]: 343 MG/KG DIET DAILY STARTING 1 WK AFTER LAST CARCINOGEN TREATMENT AND CONTINUING FOR 6 MO (STUDY DURATION: 9 MO), Species: HAMSTER, Strain/Sex: SYRIAN/MALE, Target Tissue: Type of Lesion: TRACHEA: CARCINOMA, Dose [Carcinogen]: 0.5% IN 1 ML PHOSPHATE-BUFFERED SALINE 1/WK FOR 12 WK): 4/63 (6%), 11/62 (18%), -200%, not significant
tumour outcome (control, treated, inhibition, significance) (Dose [Inhibitor]: 343 MG/KG DIET DAILY STARTING 1 WK AFTER LAST CARCINOGEN TREATMENT AND CONTINUING FOR 6 MO (STUDY DURATION: 9 MO), Species: HAMSTER, Strain/Sex: SYRIAN/MALE, Target Tissue: Type of Lesion: TRACHEA: EPITHELIAL NEOPLASM, Dose [Carcinogen]: 0.5% IN 1 ML PHOSPHATE-BUFFERED SALINE 1/WK FOR 12 WK): 10/63 (16%), 17/62 (27%), -69%, not significant
tumour outcome (control, treated, inhibition, significance) (Dose [Inhibitor]: 343 MG/KG IN DIET DAILY FOR 6 MO STARTING 1 WK AFTER FINAL CARCINOGEN DOSE (STUDY DURATION: 9 MO), Species: HAMSTER, Strain/Sex: SYRIAN/MALE, Target Tissue: Type of Lesion: TRACHEA: BENIGN EPITHELIAL NEOPLASM, Dose [Carcinogen]: 0.5% SOLUTION FOR 5 SECOND EXPOSURE 1/WK FOR 12 WK): 6/63 (10%), 6/62 (10%), 0%, not significant
tumour outcome (control, treated, inhibition, significance) (Dose [Inhibitor]: 343 MG/KG IN DIET DAILY FOR 6 MO STARTING 1 WK AFTER FINAL CARCINOGEN DOSE (STUDY DURATION: 9 MO), Species: HAMSTER, Strain/Sex: SYRIAN/MALE, Target Tissue: Type of Lesion: TRACHEA: CARCINOMA, Dose [Carcinogen]: 0.5% SOLUTION FOR 5 SECOND EXPOSURE 1/WK FOR 12 WK): 4/63 (6%), 11/62 (18%), -200%, not significant
tumour outcome (control, treated, inhibition, significance) (Dose [Inhibitor]: 343 MG/KG IN DIET DAILY FOR 6 MO STARTING 1 WK AFTER FINAL CARCINOGEN DOSE (STUDY DURATION: 9 MO), Species: HAMSTER, Strain/Sex: SYRIAN/MALE, Target Tissue: Type of Lesion: TRACHEA: EPITHELIAL NEOPLASM, Dose [Carcinogen]: 0.5% SOLUTION FOR 5 SECOND EXPOSURE 1/WK FOR 12 WK): 10/63 (16%), 17/62 (27%), -69%, not significant
tumour outcome (control, treated, inhibition, significance) (Dose [Inhibitor]: 686 MG/KG DIET DAILY FOR 24 WK STARTING 5 D AFTER LAST DOSE OF CARCINOGEN (STUDY DURATION: 32 WK), Species: RAT, Strain/Sex: F344/MALE, Target Tissue: Type of Lesion: COLON: SARCOMA, Dose [Carcinogen]: 0.5 MG 2/WK FOR 8 WK): 5/40 (13%), 1/40 (3%), 77%, not calculated
tumour outcome (control, treated, inhibition, significance) (Dose [Inhibitor]: 686 MG/KG DIET DAILY FOR 24 WK STARTING 5 D AFTER LAST DOSE OF CARCINOGEN (STUDY DURATION: 32 WK), Species: RAT, Strain/Sex: F344/MALE, Target Tissue: Type of Lesion: COLON: TUMOR, Dose [Carcinogen]: 0.5 MG 2/WK FOR 8 WK): 60%, 68%, -13%, not significant
tumour outcome (control, treated, inhibition, significance) (Dose [Inhibitor]: 686 MG/KG DIET DAILY FOR 38 WK STARTING 5 D AFTER LAST DOSE OF CARCINOGEN (STUDY DURATION: 44 WK), Species: RAT, Strain/Sex: F344/MALE, Target Tissue: Type of Lesion: COLON: MESOTHELIOMA, Dose [Carcinogen]: 0.5 MG, 2/WK FOR 6 WK STARTING 6 WK PRIOR TO AGENT TREATMENT): 1/50 (2%), 2/49 (1%), 50%, not calculated
tumour outcome (control, treated, inhibition, significance) (Dose [Inhibitor]: 686 MG/KG DIET DAILY FOR 38 WK STARTING 5 D AFTER LAST DOSE OF CARCINOGEN (STUDY DURATION: 44 WK), Species: RAT, Strain/Sex: F344/MALE, Target Tissue: Type of Lesion: COLON: TUMOR, Dose [Carcinogen]: 0.5 MG 2/WK FOR 6 WK): 62%, 61%, 2%, not significant
tumour outcome (control, treated, inhibition, significance) (Dose [Inhibitor]: 686 MG/KG DIET DAILY FOR 48 WK STARTING 5 D AFTER LAST DOSE OF CARCINOGEN (STUDY DURATION: 52 WK), Species: RAT, Strain/Sex: F344/MALE, Target Tissue: Type of Lesion: COLON: TUMOR, Dose [Carcinogen]: 0.5 MG 2/WK FOR 4 WK): 31%, 27%, 13%, not significant
